Experimental data published in article PMC7037447, “Syntheses of L-Rhamnose-Linked Amino Glycerolipids and Their Cytotoxic Activities against Human Cancer Cells” (Molecules, 2020).

Experiments:
Hemolytic assay = type: cell-based; settings: sheep, ovine erythrocytes (washed suspension), pH 7.4, relative to 1% ammonium hydroxide = 100%, read-out: Highest hemolysis observed
Protocol: To further evaluate the membrane lytic properties of compound 3, we investigated its capacity to lyse ovine erythrocytes. The highest hemolysis observed with compound 3 was about 6.6% at 100 µM compared to the 1% ammonium hydroxide positive control (Figure 6).
The hemolytic activity of the GAEL analogs was evaluated using ovine erythrocyte. Sheep whole blood was collected from a slaughter house into a vessel containing disodium EDTA ([…]) in a buffered saline (10 mM Tris, 150 mM NaCl, pH 7.4). The erythrocytes were prepared and washed with buffered saline as previously reported. For the assay, the erythrocyte suspension, varying amounts of the GAEL drugs or vehicle were pipetted into 1.5 mL microcentrifuge tubes to give a final volume of 1500 µL and cell density of 2.5 × 10^8 cells/mL. The suspensions were incubated with gentle shaking in Eppendorf thermomixer for 30 min. […] 200 µL of the supernatant was dissolved in 1800 µL of 0.5% NH4OH and the optical density (OD) was recorded using 1 mL cuvette at 540 nm in a spectrophotometer. […] The % hemolysis was calculated using the optical density (OD) values as shown below in Equation (1):% hemolysis = (X − 0%)/(100% − 0%)(1) where X is the OD values of the drug(s) at varying concentration.
Figure 6 Hemolytic properties of GAEL 3 using freshly isolated ovine erythrocytes. […] The values were determined as % of control.

[1] = test system: BT474 (hormone receptor positive breast cancer cells); test: MTS cell viability assay, 48 h; type: cell-based; settings: Homo sapiens, BT-474
Protocol: Concentrations of compound 3 between 6–15 µM were sufficient to kill all the triple negative cell lines with the exception of MDA-MB-453 where viability was inhibited by 60% at the highest concentration tested. 30 µM of 3 was required for complete loss of viability of the hormone sensitive breast cancer BT474 cell line.
(§1) The cell lines were cultured from frozen stocks originally obtained from ATCC (Manassas, VA, USA). MDA-MB-231, JIMT-1, DU145, MDA-MB-468, Hs578t and MDA-MB-453 were grown in DMEM medium supplemented with 10% FBS. BT-474 cells were grown in DMEM/F12 medium supplemented with 10% FBS. MiaPaCa2 was cultured in DMEM supplemented with 10% FBS and 2.5% horse serum. All the media contained penicillin/streptomycin. U-251 and U-87 in Eagle MEM supplemented by 10% FBS, 1% Non-essential amino acids, 1 mM sodium pyruvate and 2 mM glutamine. BT-549 was cultured in RPMI 1640 medium supplemented with 10% FBS.
The effects of the GAELs on the viability of the epithelial cancer cell lines were determined as previously described. Briefly, equal numbers of the cells were dispersed into 96-well plates. After 24 h, the cells were incubated with the compounds (0–30 µM) for 48 h. […] (20% v/v) was subsequently added and the plates were incubated for 1–4 h in a CO2 incubator followed by measurement of the medium at OD490 with a plate reader (Molecular Devices). […]

MiaPaCa2 = test: MTS cell viability assay, 48 h; type: cell-based, human; settings: Homo sapiens, MIA PaCa-2; MiaPaCa2, 48 h, MTS; read-out: CC50
Protocol: (§2) The cells were incubated with increasing concentrations of the compounds (0–30 µM) for 48 h followed by assessment of cell viability using the MTS assay. […] This compound carries a primary amino group at the sn-3 position of the glycerolipid and L-rhamno sugar at the sn-2 position via an α-rhamnosidic linkage.
as §1
(§3) The effects of the GAELs on the viability of the epithelial cancer cell lines were determined as previously described. Briefly, equal numbers of the cells were dispersed into 96-well plates. After 24 h, the cells were incubated with the compounds (0–30 µM) for 48 h. MTS reagent [3-(4,5-dimethylthiazol-2-yl)-5-(3-carboxymethoxyphenyl)-2-(4-sulfophenyl)-2H-tetrazolium, inner salt; Promega, Madison, WI, USA] (20% v/v) was subsequently added and the plates were incubated for 1–4 h in a CO2 incubator followed by measurement of the medium at OD490 with a plate reader (Molecular Devices).

DU-145 = test: MTS cell viability assay, 48 h; type: cell-based, human; settings: Homo sapiens; DU-145, 48 h, MTS; read-out: CC50
Protocol: as §2, §1, §3

PC-3 = test: MTS cell viability assay, 48 h; type: cell-based, human; settings: Homo sapiens; PC-3, 48 h, MTS; read-out: CC50
Protocol: as §2
as §3, with “Devices). Wells with media but no cells were treated in similar fashion and the values utilized as blank.” for “Devices).”

With `CCCCCCCCCCCCCCCCOCC(CN)OC1OC(C)C(O)C(O)C1O` [Compound 3, 3-Amino-1-O-hexadecyloxy-2R-(O–α-L-rhamnopyranosyl)-sn-glycerol] the hemolysis at 30 min, 100 µM (Hemolytic assay) was roughly 6.6%, the CC50 [1] was 14 µM and the CC50 (MiaPaCa2) was 8.5 µM. The CC50 (DU-145) was 8.2 µM and the CC50 (PC-3) was 11 µM.
